Laboratory results: patent US8853193B2, “Thienopyrimidines containing a substituted alkyl group for pharmaceutical compositions” (Boehringer Ingelheim International GmbH, priority 2010, dated 2014)
Structures can show the parent of a compound that is named as a salt.

target: human Mnk2a (Homo sapiens (Human), UniProt Q9HBH9); assay: Mnk2a in vitro kinase assay (indirect competitive fluorescence polarization); type: biochemical; settings: pre-activated GST-Mnk2a 2.5 nM, 20 μM ATP, 30 μM substrate peptide; read-out: MNK2 IC50
Sequence (Q9HBH9 whole entry): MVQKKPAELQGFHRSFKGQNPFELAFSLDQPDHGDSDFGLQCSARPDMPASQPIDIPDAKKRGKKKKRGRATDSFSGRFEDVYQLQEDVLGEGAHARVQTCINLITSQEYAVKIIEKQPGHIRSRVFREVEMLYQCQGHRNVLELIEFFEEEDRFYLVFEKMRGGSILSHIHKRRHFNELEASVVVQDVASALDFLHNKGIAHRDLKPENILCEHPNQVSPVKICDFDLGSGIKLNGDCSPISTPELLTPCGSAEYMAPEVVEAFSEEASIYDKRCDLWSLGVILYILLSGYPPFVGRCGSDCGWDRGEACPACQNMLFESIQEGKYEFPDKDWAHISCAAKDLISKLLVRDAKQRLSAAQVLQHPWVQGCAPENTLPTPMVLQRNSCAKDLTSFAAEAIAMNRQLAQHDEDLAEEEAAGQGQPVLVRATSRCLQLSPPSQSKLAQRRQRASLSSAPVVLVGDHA
Protocol: Inhibitory potency of compounds against Mnk1, Mnk2a and other kinases was assessed with assays based on a format known to those skilled in the art as the indirect (competitive) fluorescence polarization. The assay detection system comprises a small fluorophore-labeled phospho-peptide (termed ligand) bound to a phospho-specific antibody. The product generated by the kinase reaction competes with the ligand for antibody binding. Based on the larger molecular volume of the bound ligand, which results in a lower rotation rate in solution, its emitted light has a higher degree of polarization than the one from the free ligand.
In brief, the open reading frames of human Mnk1 and Mnk2a were amplified from cDNA using the forward/reverse primer pairs
(utilized restriction sites underlined), respectively, and cloned into the BamHI and SalI sites of the vector pGEX-4T1 (Amersham, Sweden, cat. no. 27-4580-01). These constructs allow prokaryotic expression of Mnk1 or Mnk2a as fusion protein with a N-terminal glutathione S-transferase (GST) tag, referred to as GST-Mnk1 or GST-Mnk2a. The following expression and purification procedure was identical for GST-Mnk1 and GST-Mnk2a, referring in general to GST-Mnk, when not distinguishing between the two isoforms. Expression of GST-Mnk was in E. coli BL21 (Merck Biosciences, Germany, cat. no. 69449). Cells were grown in LB-Bouillon (Merck, Germany, cat. no. 1.10285) supplemented with 100 μg/ml ampicillin (Sigma, Germany, cat. no. A9518) at 37° C. […] Cells harvested by centrifugation were resuspended in 10 ml lysis buffer (50 mM tris(hydroxymethyl)aminomethane hydrochloride (Tris/HCl, Sigma, Germany, cat. no. T5941) pH 7.5, 300 mM sodium chloride (NaCl, Sigma, Germany, cat. no. S7653), 5% (w/v) glycerol (Sigma, Germany, cat. no. G5516), 3 mM DTT dithiotreitol (DTT, Sigma, Germany, cat. no. D9779)) per gram wet weight cell pellet. Lysates were prepared by disruption of cells with a sonifier and subsequent clearing by centrifugation at 38000 g for 45 min at 4° C.
The lysate was applied to a GSTPrep FF 16/10 column (Amersham, Sweden, cat. no. 17-5234-01) equilibrated with lysis buffer. Removal of unbound material was with 3 column volumes (CV) lysis buffer. Elution was with 2 CV of elution buffer (50 mM Tris/HCl pH 7.5, 300 mM NaCl, 5% (w/v) glycerol, 20 mM glutathione (Sigma, Germany, cat. no. G4251)). Peak fractions were pooled and the protein transferred into storage buffer (50 mM Tris/HCl pH 7.5, 200 mM NaCl, 0.1 mM ethylene glycol[…] bis(2-aminoethylether)-N,N,N′,N′-tetraacetic acid (EGTA, Aldrich, Germany, cat. no. 23, 453-2), 1 mM DTT, 10% (w/v) glycerol, 0.5 M sucrose (Sigma, Germany, cat. no. S0389) by gel filtration on a PD10 desalting column (Amersham, Sweden, cat. no. 17-0851-01). Aliquots were shock frozen in liquid nitrogen and stored at −80° C.
Activation of Mnk1 and Mnk2a was at a concentration of 2.5 μM of either purified GST-Mnk1 or GST-Mnk2a by incubation with 150 nM pre-activated NHis-ERK2 (see ERK2 assay for preparation) and 50 μM adenosine triphosphate (ATP, Sigma, cat. no. A2699) in a buffer comprising 20 mM N-(2-hydroxyethyl)piperazine-N′-(2-ethanesulfonic acid) (HEPES, Fluka, Germany, cat. no 54459)/potassium hydroxide (KOH, Roth, Germany, cat. no 6751.1) pH 7.4, 10 mM magnesium chloride (MgCl2, Sigma, Germany, cat. no. M2670), 0.25 mM DTT, 0.05% (w/v) polyoxyethylene 20 stearylether (Brij 78, Sigma, Germany, cat. no. P4019) (HMDB buffer) for 45 min at 30° C. After the incubation, the preparation was aliquoted into single-use samples, shock frozen in liquid nitrogen, stored at −80° C. and utilized for Mnk1 or Mnk2a kinase assays as detailed below.
The serine residue phosphorylated by Mnk kinases is underlined.

| SMILES | IC50 [nM] |
| --- | --- |
| COC(=O)c1sc2ncnc(Nc3ccc(F)cc3OC(CN)CNS(C)(=O)=O)c2c1C (stereo not shown) [Compound 19-2, Methyl 4-(2-(1-amino-3-(methyl-sulfonamido)-propan-2-yloxy)-4-fluoro-phenylamino)-5-methylthieno[2,3-d]pyrimidine-6-carboxylate trifluoroacetate] | 1170 |
| Cc1c(C(=O)NCC#CCN(C)C)sc2ncnc(Nc3cccnc3OC(C)C(F)(F)F)c12 (stereo not shown) [Compound 21-7, 5-Methyl-4-[2-(2,2,2-trifluoro-1-methyl-ethoxy)-pyridin-3-ylamino]-thieno[2,3-d]pyrimidine-6-carboxylic acid (4-dimethylamino-but-2-ynyl)-amide] | 24 |
| COC(=O)c1sc2ncnc(Nc3ccc(F)cc3OC(C)CC(C)(C)O)c2c1C (stereo not shown) [Compound 20-1, Methyl 4-(4-fluoro-2-(4-hydroxy-4-methylpentan-2-yloxy)phenylamino)-5-methyl-thieno[2,3-d]pyrimidine-6-carboxylate] | 142 |
| COC(=O)c1sc2ncnc(Nc3ccc(F)cc3OC(C)CN(C)C)c2c1C (stereo not shown) [Compound 4, Methyl 4-(2-(1-dimethylamino)propan-2yloxy)-4-fluorophenylamino)-5-methyl-thieno[2,3-d]pyrimidine-6-carboxylate trifluoroacetate] | 3140 |
| Cc1c(C(N)=O)sc2ncnc(Nc3cccnc3OC(C)C(F)(F)F)c12 (stereo not shown) [Compound 21-3, 5-Methyl-4-(2-(1,1,1-trifluoropropan-2-yloxy)pyridin-3-ylamino)thieno[2,3-d]pyrimidine-6-carboxamide] | 11 |
| COC(=O)c1sc2ncnc(Nc3ccc(F)cc3OC(C)CCN)c2c1C (stereo not shown) [Compound 12, Methyl 4-(2-(4-aminobutan-2yloxy)-4-fluorophenylamino)-5-methyl-thieno[2,3-d]pyrimidine-6-carboxylate hydrochloride] | 52 |
| COC(=O)c1sc2ncnc(Nc3ccc(F)cc3OC(C)CN)c2c1C (stereo not shown) [Compound 2-1, Methyl 4-(2-(1-aminopropan-2-yloxy)-4-fluorophenylamino)-5-methyl-thieno[2,3-d]pyrimidine-6-carboxylate trifluoroacetate] | 70 |
| COC(=O)c1sc2ncnc(Nc3ccc(F)cc3OC(C)CNS(=O)(=O)C(C)C)c2c1C (stereo not shown) [Compound 3-2, Methyl 4-(4-fluoro-2-(1-(1-methylethylsulfon-amino)propan-2yloxy)-phenylamino)-5-methyl-thieno[2,3-d]pyrimidine-6-carboxylate] | 204 |
| Cc1c(C(=O)O)sc2ncnc(Nc3ccc(F)cc3OC(C)CNC(=O)OC(C)(C)C)c12 (stereo not shown) [Compound 1-2, 4-(2-(1-(tert-Butoxycarbonylamino)propan-2-yloxy)-4-fluorophenylamino)-5-methyl-thieno[2,3-d]pyrimidine-6-carboxylic acid] | 52 |
| Cc1c(C(=O)N[C@@H]2C[C@H]2N)sc2ncnc(Nc3ccc(F)cc3OC(CF)CF)c12 (relative stereo) [Compound 25, N-((trans)-2-Aminocyclopropyl)-4-(2-(1,3-difluoropropan-2-yloxy)-4-fluorophenylamino)-5-methylthieno[2,3-d]pyrimidine-6-carboxamide hydrochloride] | 12 |
| Cc1c(C(=O)NCCCN2CCCC2)sc2ncnc(Nc3ccc(C#N)cc3OC(CF)CF)c12 [Compound 48, 4-[4-Cyano-2-(2-fluoro-1-fluoromethyl-ethoxy)-phenylamino]-5-methyl-thieno[2,3-d]pyrimidine-6-carboxylic acid (3-pyrrolidin-1-yl-propyl)-amide] | 12 |
| Cc1c(C(N)=O)sc2ncnc(Nc3ccc(F)cc3O[C@@H](C)CNC(=O)OC(C)(C)C)c12 (racemic) [Compound 6-1, (R) and (S)-tert-butyl 2-(2-(6-carbamoyl-5-methyl-thieno[2,3-d]pyrimidin-4-ylamino)-5-fluorophenoxy)propylcarbamate] | 164 |

The remaining lines, values ahead:

| IC50 [nM] | SMILES |
| --- | --- |
| 65 | Cc1c(C(=O)NCCO)sc2ncnc(Nc3ccc(F)cc3OCCO)c12 [Compound 32-33] |
| 26 | COCC(CF)Oc1cc(F)ccc1Nc1ncnc2sc(C(=O)NCCO)c(C)c12 (stereo not shown) [Compound 32-23] |
| 146 | Cc1c(C(=O)NCCCN(C)C)sc2ncnc(Nc3ccc(F)cc3OC(CO)CO)c12 [Compound 32-31] |
| 22 | Cc1c(C(=O)NCC#CCN(C)C)sc2ncnc(Nc3cccnc3OC(C)C)c12 [Compound 36-16] |
| 12 | Cc1c(C(=O)NCCCN2CCCC2)sc2ncnc(Nc3ccc(F)cc3OC(C)CC(F)(F)F)c12 (stereo not shown) [Compound 32-42] |
| 13 | Cc1c(C(=O)N[C@@H]2C[C@H]2NC(=O)OC(C)(C)C)sc2ncnc(Nc3ccc(F)cc3OC(CF)CF)c12 [Compound 23-5, Tert-butyl (1R,2R)-2-(4-2(1,3-difluoro-propan-[2,3-d]pyrimidine-6-carboxamido)cyclopropyl carbamate] |
| 23 | Cc1c(C(=O)NCCCN(C)C)sc2ncnc(Nc3ccc(F)cc3OCC(F)F)c12 [Compound 32-19] |
| 27 | Cc1c(C(N)=O)sc2ncnc(Nc3ccc(F)cc3OCCO)c12 [Compound 32-32] |
| 15 | Cc1c(C(N)=O)sc2ncnc(Nc3cccnc3OCC3CC3(F)F)c12 (stereo not shown) [Compound 34-4] |
| 7 | Cc1c(C(=O)NCCO)sc2ncnc(Nc3ccc(F)cc3OC(C)CF)c12 (stereo not shown) [Compound 32-27] |
| 35 | Cc1c(C(=O)NCCCN2CCCC2)sc2ncnc(Nc3cccnc3OC(C)C)c12 [Compound 36-1, 4-(2-Isopropoxypyridin-3-ylamino)-5-methyl-N-(3-(pyrrolidin-1-yl)propyl)thieno[2,3-d]pyrimidine-6-carboxamide] |
| 26 | CCNC(=O)c1sc2ncnc(Nc3cccnc3OC(C)C)c2c1C [Compound 36-3] |
| 13 | Cc1c(C(=O)O)sc2ncnc(Nc3ccc(F)cc3OCCO)c12 [Compound 32-9] |
| 11 | CCNC(=O)C(C)Oc1cc(F)ccc1Nc1ncnc2sc(C(N)=O)c(C)c12 (stereo not shown) [Compound 31-5, 4-(2-(1-(Ethylamino)-1-oxopropan-2-yloxy)-4-fluorophenylamino)-5-methyl-thieno[2,3-d]pyrimidine-6-carboxamide] |
| 63 | Cc1c(C(=O)NCCN2CCCCC2)sc2ncnc(Nc3cccnc3OC(C)C)c12 [Compound 36-9, 4-(2-Isopropoxypyridin-3ylamino)-5-methyl-N-(2-(piperidin-1-yl)ethyl)thieno[2,3-d]pyrimidine-6-carboxamide] |
| 26 | COCC(C)Oc1ncccc1Nc1ncnc2sc(C(N)=O)c(C)c12 (stereo not shown) [Compound 28-3, 4-(2-(1-Methoxygrogan-2-yloxy)gyridin-3-ylamino)-5-methyl-thieno[2,3-d]gyrimidine-6-carboxamide] |
| 4 | Cc1c(C(N)=O)sc2ncnc(Nc3ccc(F)cc3OC(CF)CF)c12 [Compound 23-3, 4-(2-(1,3-Difluoropropan-2-yloxy)-4-fluorophenylamino)-5-methyl-thieno[2,3-d]pyrimidine-6-carboxamide] |
| 19 | Cc1c(C(=O)O)sc2ncnc(Nc3ccc(F)cc3OCC3(CC#N)CC3)c12 [Compound 32-2] |
| 57 | Cc1c(C(=O)NCCCN(C)C)sc2ncnc(Nc3cccnc3OCC(F)F)c12 [Compound 30-5, 4-(2-(2,2-difluoroethoxy)-pyridin-3-ylamino)-N-(3-(dimethyl-amino)propyl)-5-methyl-thieno[2,3-d]pyrimidine-6-carbox-amide hydro-chloride] |
